{"source": "patent US20240207395A1", "about": "“ADJUVANT ACTIVITY ENHANCER AND ADJUVANT COMPOSITION” (priority 2021, published 2024)", "key": {"[1]": {"tested_on": "A/Kansas/14/2017 strain (A/H3N2)", "type": "in vivo, BALB/c mice", "conditions": "for GMT (geometric mean IgG antibody titer) / GMT ratio to the non-adjuvanted group: BALB/c mice; for GMT (geometric mean IgG antibody titer): subcutaneous 0.1 mL, 0.6 μg HA/strain, serum 21 days after administration; for GMT ratio to the non-adjuvanted group: subcutaneous"}, "[2]": {"tested_on": "B/Maryland/15/2016 strain (B/Victoria)", "type": "in vivo, BALB/c mice", "conditions": "for GMT (geometric mean IgG antibody titer) / GMT ratio to the non-adjuvanted group: BALB/c mice; for GMT (geometric mean IgG antibody titer): subcutaneous 0.1 mL, 0.6 μg HA/strain, serum 21 days after administration; for GMT ratio to the non-adjuvanted group: subcutaneous"}}, "note": "Ends that are not written are not given here. C10PNA = 10-mer peptide nucleic acid with ten cytosine bases", "data": [{"substance": "5′-[…]-3′ (SEQ ID NO: 9) [ODN1826]", "values": [{"measurement": "GMT (geometric mean IgG antibody titer)", "setting": "[1]", "result": 65838}, {"measurement": "GMT ratio to the non-adjuvanted group", "setting": "[1]; Day 21", "result": 5.1}, {"measurement": "Subclass ratio of IgG1/IgG2a", "setting": "[1]; Day 21", "result": "IgG2a dominant"}, {"measurement": "GMT (geometric mean IgG antibody titer)", "setting": "[2]", "result": 31152}, {"measurement": "GMT ratio to the non-adjuvanted group", "setting": "[2]; Day 21", "result": 2.1}, {"measurement": "Subclass ratio of IgG1/IgG2a", "setting": "[2]; Day 21", "result": "IgG2a dominant"}]}, {"substance": "MIP-03: HIV TAT-derived peptide of 13 amino acids (SEQ ID NO: 1) covalently bound at its C-terminal to C10PNA (GRKKRRQRRRPPQ-C10PNA)", "values": [{"measurement": "GMT (geometric mean IgG antibody titer)", "setting": "[1]", "result": 112071}, {"measurement": "GMT ratio to the non-adjuvanted group", "setting": "[1]; Day 21", "result": 8.7}, {"measurement": "GMT (geometric mean IgG antibody titer)", "setting": "[2]", "result": 25802}, {"measurement": "GMT ratio to the non-adjuvanted group", "setting": "[2]; Day 21", "result": 1.7}]}]}
